# Experimental data published in US20240423925A1, “GRANULE COMPRISING ENCAPSULATED ACTIVE INGREDIENTS” (DSM IP ASSETS B.V., priority 2021, published 2024).
# Experiment: Differential scanning calorimetry (DSC) of sorbitol grades
# Type: physicochemical
# Conditions: sorbitol grades used as binder
# Experimental: Different grades of sorbitol were then investigated in order to further reduce the energy required to generate good water soluble granules. Samples were analyzed via differential scanning calorimetry (DSC) in order to determine the sorbitol grade with the lowest melt energy. When using sorbitol grade Xtab300S (available at Roquette®) as a binder, the energy required to generate good water-soluble granules is lower than the other grades (cf. Table below).
row,SMILES,Melt Energy [J/g]
1,"OC[C@@H](O)[C@@H](O)[C@H](O)[C@@H](O)CO [Example P100C, sorbitol]",181.9
2,"OC[C@@H](O)[C@@H](O)[C@H](O)[C@@H](O)CO [Example P300C, sorbitol]",180.3
3,"OC[C@@H](O)[C@@H](O)[C@H](O)[C@@H](O)CO [Example P550SD, sorbitol]",165.1
4,"OC[C@@H](O)[C@@H](O)[C@H](O)[C@@H](O)CO [Example P650C, sorbitol]",174.9

# More lines, now with the values ahead:
row,Melt Energy [J/g],SMILES
1,161.7,"OC[C@@H](O)[C@@H](O)[C@H](O)[C@@H](O)CO [Xtab200S, sorbitol]"
2,126.5,"OC[C@@H](O)[C@@H](O)[C@H](O)[C@@H](O)CO [Xtab300S, sorbitol]"
